Results as given in ChEMBL document CHEMBL6177981, “Bardoxolone Derivatives as Novel Pseudo-Natural Necroptosis Inhibitors by Destabilizing HSP90 Client Proteins” (J Med Chem, 2025).
The source made the active and inactive calls. The calls are words filed in the database; no cut-off is given here.

Columns and labels:
[1] = tested on: L929; assay: Anti-necroptotic activity in TZ-induced mouse L929 cells assessed as increase in cell viability preincubated with Z-VAD-FMK followed by mTNFalpha stimulation for 4 hrs and measured after compound addition by CellTiter-Lumi luminescent cell viability assay; format: functional, cell-based
[2] = tested on: HT-29; assay: Anti-necroptotic activity in TSZ-induced human HT-29 cells assessed as increase in cell viability preincubated with Z-VAD-FMK and SM164 for 30 mins followed by TNFalpha stimulation for 12 hrs and measured after compound addition by CellTiter-Lumi luminescent cell viability assay; format: functional, cell-based
[3] = tested on: HT-29; assay: Anti-necroptotic activity in TSZ-induced human HT-29 cells assessed as increase in cell viability preincubated with compound followed by Z-VAD-FMK, SM164 and TNFalpha addition and measured after 12 hrs by CellTiter-Lumi luminescent cell viability assay; format: functional, cell-based; details: dose 0.156-10 µM
[4] = tested on: EOL1; assay: Anti-necroptotic activity in TSZ-induced human EOL1 cells assessed as increase in cell viability at 2.5 to 20 uM preincubated with compound followed by Z-VAD-FMK, SM164 and TNFalpha addition and measured after 7 hrs by CellTiter-Lumi luminescent cell viability assay relative to control; format: functional; details: dose 2.5-20 µM
[5] = tested on: HT-29; assay: Anti-apoptotic activity in TC-induced human HT-29 cells assessed as increase in cell viability at 1.25 to 20 uM preincubated with compound followed by TNF-alpha and cycloheximide addition and measured after 24 hrs by CellTiter-Lumi luminescent cell viability assay; format: functional, cell-based; details: dose 1.25-20 µM
[6] = tested on: Mus musculus; assay: (§1) Anti-necroptotic activity in TNFalpha/Z-VAD-FMK induced SIRS male C57BL/6J mouse model assessed as reduction in IL-1beta in lung at 5 to 10 mg/kg, po pre-administered with compound via gavage for 2 hrs followed by […] of Z-VAD-FMK stimulation for 15 mins with subsequent TNF-alpha stimulation for 1 hrs and re-current […] of Z-VAD-FMK stimulation and measured after 8 hrs post SIRS induction by ELISA; format: functional, organism-based; details: dose 5-10 mg/kg, time 10.0 hrs
[7] = tested on: Mus musculus; assay: as §1, with “IL6” for “IL-1beta”, “brain” for “lung”; format: functional, organism-based; details: dose 5-10 mg/kg, time 10.0 hrs
[8] = Tmax in Sprague-Dawley rat at 2 mg/kg, iv measured after 24 hrs by LC-MS/MS analysis; format: ADME, organism-based; details: in vivo
[9] = Cmax in Sprague-Dawley rat at 10 mg/kg, IG measured after 24 hrs by LC-MS/MS analysis; format: ADME, organism-based; details: in vivo, po
[10] = Acute toxicity in male C57BL/6J mouse assessed as effect on urea level at 2 g/Kg, IG measured after 72 hrs; details: in vivo, po, 2000 mg/kg
[11] = Acute toxicity in male C57BL/6J mouse assessed as effect on ALT level at 2 g/Kg, IG measured after 72 hrs; details: in vivo, po, 2000 mg/kg
[12] = Acute toxicity in male C57BL/6J mouse assessed as inflammatory cell infiltration in heart at 2 g/Kg, IG measured after 72 hrs by H and E staining based analysis; format: tissue-based; details: in vivo, po, 2000 mg/kg
[13] = Acute toxicity in male C57BL/6J mouse assessed as hemorrhage in heart at 2 g/Kg, IG measured after 72 hrs by H and E staining based analysis; format: tissue-based; details: in vivo, po, 2000 mg/kg
[14] = Acute toxicity in male C57BL/6J mouse assessed as structural changes in liver at 2 g/Kg, IG measured after 72 hrs by H and E staining based analysis; format: tissue-based; details: in vivo, po, 2000 mg/kg
[15] = Acute toxicity in male C57BL/6J mouse assessed as hemorrhage in lung at 2 g/Kg, IG measured after 72 hrs by H and E staining based analysis; format: tissue-based; details: in vivo, po, 2000 mg/kg
[16] = Acute toxicity in male C57BL/6J mouse assessed as structural changes in lung at 2 g/Kg, IG measured after 72 hrs by H and E staining based analysis; format: tissue-based; details: in vivo, po, 2000 mg/kg
[17] = Acute toxicity in male C57BL/6J mouse assessed as hemorrhage in kidney at 2 g/Kg, IG measured after 72 hrs by H and E staining based analysis; format: tissue-based; details: in vivo, po, 2000 mg/kg
[18] = Acute toxicity in male C57BL/6J mouse assessed as hemorrhage in brain at 2 g/Kg, IG measured after 72 hrs by H and E staining based analysis; format: tissue-based; details: in vivo, po, 2000 mg/kg
[19] = Acute toxicity in male C57BL/6J mouse assessed as structural changes in brain at 2 g/Kg, IG measured after 72 hrs by H and E staining based analysis; format: tissue-based; details: in vivo, po, 2000 mg/kg
[20] = Acute toxicity in male C57BL/6J mouse assessed as inflammatory cell infiltration in stomach at 2 g/Kg, IG measured after 72 hrs by H and E staining based analysis; format: tissue-based; details: in vivo, po, 2000 mg/kg
[21] = tested on: HT-29; assay: Downregulation of total RIPK3 protein level in TSZ-induced human HT-29 cells at 10 uM preincubated with compound followed by Z-VAD-FMK, SM164 and TNFalpha stimulation and measured after 6 hrs by Western blot analysis; format: functional, cell-based
[22] = Inhibition of TSZ-mediated necrosome formation in human HT-29 cells at 10 uM preincubated with compound followed by Z-VAD-FMK, SM164 and TNFalpha stimulation and measured after 6 hrs by co-immunoprecipitation based Western blot analysis relative to control; format: functional
[23] = tested on: HT-29; assay: Downregulation of RIPK3 protein level in human HT-29 cells incubated for 9 hrs by Western blot analysis; format: functional, cell-based; details: dose 0.75-6 µM
[24] = tested on: HT-29; assay: Downregulation of RIPK1 protein level in human HT-29 cells at 3 to 6 uM incubated for 9 hrs by Western blot analysis; format: functional, cell-based; details: dose 3-6 µM
[25] = tested on: HT-29; assay: Downregulation of RIPK1 protein level in human HT-29 cells at 6 uM preincubated with MLN4924 for 2 hrs followed by compound addition and measured after 9 hrs by Western blot analysis; format: functional, cell-based
[26] = tested on: HT-29; assay: Downregulation of RIPK1 protein level in human HT-29 cells at 6 uM preincubated with NH4Cl for 2 hrs followed by compound addition and measured after 9 hrs by Western blot analysis; format: functional, cell-based
[27] = tested on: HT-29; assay: Downregulation of RIPK3 protein level in human HT-29 cells at 6 uM preincubated with MLN4924 for 2 hrs followed by compound addition and measured after 9 hrs by Western blot analysis; format: functional, cell-based
[28] = tested on: HT-29; assay: Downregulation of RIPK3 protein level in human HT-29 cells at 6 uM preincubated with Z-VAD-FMK for 2 hrs followed by compound addition and measured after 9 hrs by Western blot analysis; format: functional, cell-based
[29] = tested on: HT-29; assay: Downregulation of MLKL protein level in human HT-29 cells at 6 uM preincubated with NH4Cl for 2 hrs followed by compound addition and measured after 9 hrs by Western blot analysis; format: functional, cell-based
[30] = tested on: HeLa; assay: Upregulation of HSP70 expression in RIPK3-deficient human HeLa cells at 1.5 uM incubated for 9 hrs by Western blot analysis; format: functional, cell-based
[31] = tested on: HeLa; assay: Inhibition of RIPK1 protein expression in RIPK3-deficient human HeLa cells at 0.75 to 6 uM incubated for 9 hrs by Western blot analysis; format: functional, cell-based; details: dose 0.75-6 µM
[32] = tested on: HeLa; assay: Inhibition of MLKL protein expression in RIPK3-deficient human HeLa cells at 6 uM preincubated with NH4Cl for 2 hrs followed by compound addition and measured after 9 hrs by Western blot analysis; format: functional, cell-based
[33] = tested on: HT-29; assay: Downregulation of RIPK1 protein level in human HT-29 cell supernatant at 6 uM measured after 9 hrs by Western blot analysis; format: functional, cell-based
[34] = tested on: HT-29; assay: Downregulation of MLKL protein level in human HT-29 cell supernatant at 6 uM measured after 9 hrs by Western blot analysis; format: functional, cell-based

Cn1ccc(-c2ccc(NC(=O)[C@]34CCC(C)(C)C[C@H]3[C@H]3C(=O)C=C5[C@@]6(C)C=C(C#N)C(=O)C(C)(C)[C@@H]6CC[C@@]5(C)[C@]3(C)CC4)cc2)n1
EC50 [1]: 4.12 µM
EC50 [2]: 1.38 µM
Activity [3]: Dose-dependent-effect
Activity [4]: 100%
Activity [5]: inactive
Activity [6]: Active
Activity [7]: Active
Tmax [8]: 4.98 min
Cmax [9]: 65.1 ng/mL
Activity [10]: Non-toxic
Activity [11]: Non-toxic
Activity [12]: Non-toxic
Activity [13]: Non-toxic
Activity [14]: Non-toxic
Activity [15]: Non-toxic
Activity [16]: Non-toxic
Activity [17]: Non-toxic
Activity [18]: Non-toxic
Activity [19]: Non-toxic
Activity [20]: Non-toxic
Activity [21]: Active
inhibition at 10 µM [22]: 100%
Activity [23]: Dose-dependent-effect
Activity [24]: Active; Significant Effect Observed
Activity [25]: Active
Activity [26]: Active
Activity [27]: Active
Activity [28]: Active
Activity [29]: Active
Activity [30]: Active
inhibition [31]: Active
inhibition [32]: Active
Activity [33]: Active
Activity [34]: Active
